Experimental data: ChEMBL document CHEMBL1201862, “PubChem BioAssay data set” (2004)
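Dose response: 5 concentrations. Exposure: 48 h. Format: 96-well plates. Endpoint: linear interpolation; highest concentration if not reached. Abbreviation: GI50, concentration required for 50% inhibition of growth.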 Activity calls are given as the source filed them. Rule as the data show it: active = GI50 up to about 1.1 µM and inactive = higher.

Experiments:
Assay in all cases: inhibition of tumour cell growth, NCI panel, 48 h
KM12 = test system: KM12
HOP-92 = test system: HOP-92
LOX IMVI = test system: LOX IMVI
SF-539 = test system: SF-539
SW-620 = test system: SW-620
CCRF-CEM = test system: CCRF-CEM
MOLT-4 = test system: MOLT-4
HCT-15 = test system: HCT-15
NCI-H23 = test system: NCI-H23
EKVX = test system: EKVX
OVCAR-5 = test system: OVCAR-5
HOP-62 = test system: HOP-62
HCT-116 = test system: HCT-116
SF-295 = test system: SF-295
A498 = test system: A498
OVCAR-3 = test system: OVCAR-3
T47D = test system: T47D
UACC-257 = test system: UACC-257
SK-MEL-5 = test system: SK-MEL-5
SK-MEL-28 = test system: SK-MEL-28

Row | SMILES | GI50 (KM12) | GI50 (HOP-92) | GI50 (LOX IMVI) | GI50 (SF-539) | GI50 (SW-620) | GI50 (CCRF-CEM) | GI50 (MOLT-4) | GI50 (HCT-15) [µM] | GI50 (NCI-H23) | GI50 (EKVX) | GI50 (OVCAR-5) | GI50 (HOP-62) | GI50 (HCT-116) | GI50 (SF-295) | GI50 (A498) | GI50 (OVCAR-3) | GI50 (T47D) | GI50 (UACC-257) | GI50 (SK-MEL-5) | GI50 (SK-MEL-28)
1 | Cc1[nH]c2ccccc2c1-c1cc(-c2cc(-c3c(C)[nH]c4ccccc34)on2)no1 | 42.6 µM (inactive) | 83.8 µM (inactive) | 55 µM (inactive) | 49 µM (inactive) | 53.2 µM (inactive) | 34.2 µM (inactive) | > 100 µM (inactive) | 57.1 | > 100 µM (inactive) | 54.7 µM (inactive) | > 100 µM (inactive) | 85.9 µM (inactive) | 44.3 µM (inactive) | 40.2 µM (inactive) | > 100 µM (inactive) | 40.6 µM (inactive) | 85.5 µM (inactive) | 43.1 µM (inactive) | 38.5 µM (inactive) | > 100 µM (inactive)
2 | N#Cc1c(Nc2ccccc2)[n+]([O-])c2ccc(Cl)cc2[n+]1[O-] | 4.36 µM (inactive) | 1.73 µM (inactive) | 3.1 µM (inactive) | 5.22 µM (inactive) | 4.63 µM (inactive) | 2.92 µM (inactive) | 3.65 µM (inactive) | 1.89 | 5.08 µM (inactive) | 4.3 µM (inactive) | 15.8 µM (inactive) | 7.67 µM (inactive) | 3.88 µM (inactive) | 4.52 µM (inactive) | 7.69 µM (inactive) | 2.99 µM (inactive) | 6.65 µM (inactive) | 7.28 µM (inactive) | 2.09 µM (inactive) | 12.9 µM (inactive)
3 | Nc1nc(Cl)cc(NCC2(O)CC(CO)C2)n1 (stereo not given) | > 100 µM (inactive) | > 100 µM (inactive) | > 100 µM (inactive) | > 100 µM (inactive) | > 100 µM (inactive) | > 100 µM (inactive) | > 100 µM (inactive) | > 100 | > 100 µM (inactive) | > 100 µM (inactive) | > 100 µM (inactive) | > 100 µM (inactive) | > 100 µM (inactive) | > 100 µM (inactive) | > 100 µM (inactive) | > 100 µM (inactive) | > 100 µM (inactive) | > 100 µM (inactive) | > 100 µM (inactive) | > 100 µM (inactive)
4 | CC1(C)C=C(/C=C2/N(S(=O)(=O)C(F)(F)F)C(/C=C3/N(S(=O)(=O)C(F)(F)F)C(C)(C#N)CC3(C)C)=CC2(C)C)N=C1/C=C1/CC(C)(C)C(=O)N1 (stereo not given) | 5.77 µM (inactive) | 24.7 µM (inactive) | 17.9 µM (inactive) | 24.8 µM (inactive) | 6.93 µM (inactive) | 2.84 µM (inactive) | 2.84 µM (inactive) | 6.05 | 18.8 µM (inactive) | 8.45 µM (inactive) | 57.5 µM (inactive) | 9.44 µM (inactive) | 3.73 µM (inactive) | 14.3 µM (inactive) | 55.6 µM (inactive) | 7.62 µM (inactive) | 6.07 µM (inactive) | 20.6 µM (inactive) | 13.8 µM (inactive) | 51.2 µM (inactive)
5 | CC1=C/C(=N\O)C(C(O)(C(F)(F)F)C(F)(F)F)C(C)(C)C1 (stereo not given) | > 10 µM (inactive) | > 10 µM (inactive) | > 10 µM (inactive) | > 10 µM (inactive) | > 10 µM (inactive) | > 10 µM (inactive) | > 10 µM (inactive) | > 10 | > 10 µM (inactive) | > 10 µM (inactive) | > 10 µM (inactive) | > 10 µM (inactive) | > 10 µM (inactive) | > 10 µM (inactive) | > 10 µM (inactive) | > 10 µM (inactive) | > 10 µM (inactive) | > 10 µM (inactive) | > 10 µM (inactive) | > 10 µM (inactive)
6 | CN(C)Cc1cc(C(C)(C)C)cc(CNC2CCCCC2)c1O | 30.4 µM (inactive) | 19.5 µM (inactive) | 22.1 µM (inactive) | 17.7 µM (inactive) | 33.5 µM (inactive) | 12.9 µM (inactive) | 12.3 µM (inactive) | 28.8 | 69.7 µM (inactive) | 15.8 µM (inactive) | 19.2 µM (inactive) | 41.2 µM (inactive) | 25.4 µM (inactive) | 23 µM (inactive) | 27.9 µM (inactive) | 29.9 µM (inactive) | 63.5 µM (inactive) | 26.2 µM (inactive) | 15.5 µM (inactive) | 33.3 µM (inactive)
7 | COc1cc([C@@H]2c3cc4c(cc3[C@@H](c3c(O)cc(O)c5c3O[C@H](c3ccc(O)c(O)c3)[C@H](OC(=O)c3cc(O)c(O)c(O)c3)C5)[C@H]3COC(=O)[C@H]23)OCO4)cc(OC)c1OC | 3.88 µM (inactive) | > 100 µM (inactive) | 5.77 µM (inactive) | 4.22 µM (inactive) | 5.87 µM (inactive) | 2.44 µM (inactive) | 7.74 µM (inactive) | 18.7 | 38.5 µM (inactive) | 45.5 µM (inactive) | 53.3 µM (inactive) | 11.9 µM (inactive) | 5 µM (inactive) | 3.91 µM (inactive) | 3.74 µM (inactive) | 4.01 µM (inactive) | > 100 µM (inactive) | 43.1 µM (inactive) | 7.38 µM (inactive) | > 50.7 µM (inactive)
